Our source for the EC50 and CC50 values is patent US20250120989A1, “BRIDGED TRICYCLIC CARBAMOYLPYRIDONE COMPOUNDS AND USES THEREOF” (priority 2023, published 2025).

Where two headings read alike, the source gives them in different places.

Series [1] relates to HIV-1 (IIIB). Nature of the series: microbe, parasite or virus in culture. The format is cell-based. The note with it: read-out: MT4 EC50.
The nature of series [2]: in vitro. The note with it: human; for CC50 at 5 days: uninfected MT-4 cells.
The mark [3] stands for this setting: Human immunodeficiency virus 1, MT4, 120 h, HIV-1 (IIIB) replication in MT-4 cells, 5 days, Cell Titer Glo.

For the molecule `CC1=NO[C@@]2(CC[C@H](C)N3C[C@H]2n2cc(C(=O)NCc4ccc(F)cc4F)c(=O)c(OCOC(=O)O[C@H](C)COP(=O)(O)O)c2C3=O)C1` [Compound 18, (((3′S,5S,7′R)-10′-((2,4-difluorobenzyl)carbamoyl)-3,3′-dimethyl-1′,11′-dioxo-1′,4′,5′,11′-tetrahydro-3′H,4H,7′H-spiro[isoxazole-5,6′-[2,7]methanopyrido[1,2-a][1,4]diazonin]-12′-yl)oxy)methyl ((R)-1-(phosphonooxy)propan-2-yl) carbonate], the EC50 in series [1] (setting [3]) turned out to be 0.00227 µM. The CC50 at 5 days in series [2] turned out to be 12.1 µM.

Turning to `COC1=NO[C@@]2(CC[C@H](C)N3C[C@H]2n2cc(C(=O)NCc4ccc(F)cc4F)c(=O)c(OCOP(=O)(O)O)c2C3=O)C1` [Compound 1, (((3′S,5S,7′R)-10′-((2,4-difluorobenzyl)carbamoyl)-3-methoxy-3′-methyl-1′,11′-dioxo-1′,4′,5′,11′-tetrahydro-3′H,4H,7′H-spiro[isoxazole-5,6′-[2,7]methanopyrido[1,2-a][1,4]diazonin]-12′-yl)oxy)methyl dihydrogen phosphate], the EC50 in series [1] (setting [3]) stood at 0.00177 µM. The CC50 at 5 days in series [2] was found to be 15.4 µM. The matching figures for `CC1=NO[C@@]2(CC[C@H](C)N3C[C@H]2n2cc(C(=O)NCc4ccc(F)cc4F)c(=O)c(OCOC(=O)OC[C@@H](C)COP(=O)(O)O)c2C3=O)C1` [Compound 70, (((3′S,5S,7′R)-10′-((2,4-difluorobenzyl)carbamoyl)-3,3′-dimethyl-1′,11′-dioxo-1′,4′,5′,11′-tetrahydro-3′H,4H,7′H-spiro[isoxazole-5,6′-[2,7]methanopyrido[1,2-a][1,4]diazonin]-12′-yl)oxy)methyl ((R)-2-methyl-3-(phosphonooxy)propyl) carbonate]: 0.00286 µM and 15.3 µM. On the same counts, the results for `COC1=NO[C@@]2(CC[C@H](C)N3C[C@H]2n2cc(C(=O)NCc4ccc(F)cc4F)c(=O)c(OCOC(=O)OC[C@@H](C)OP(=O)(O)O)c2C3=O)C1` [Compound 53, (((3′S,5S,7′R)-10′-((2,4-difluorobenzyl)carbamoyl)-3-methoxy-3′-methyl-1′,11′-dioxo-1′,4′,5′,11′-tetrahydro-3′H,4H,7′H-spiro[isoxazole-5,6′-[2,7]methanopyrido[1,2-a][1,4]diazonin]-12′-yl)oxy)methyl ((R)-2-(phosphonooxy)propyl) carbonate] are 0.00196 µM and 15.2 µM. On the same counts, the results for `COC1=NO[C@@]2(CC[C@H](C)N3C[C@H]2n2cc(C(=O)NCc4ccc(F)cc4F)c(=O)c(OCOC(=O)OC[C@@H](C)COP(=O)(O)O)c2C3=O)C1` [Compound 71, (((3′S,5S,7′R)-10′-((2,4-difluorobenzyl)carbamoyl)-3-methoxy-3′-methyl-1′,11′-dioxo-1′,4′,5′,11′-tetrahydro-3′H,4H,7′H-spiro[isoxazole-5,6′-[2,7]methanopyrido[1,2-a][1,4]diazonin]-12′-yl)oxy)methyl ((R)-2-methyl-3-(phosphonooxy)propyl) carbonate] are 0.00504 µM and 21.3 µM.

Take `CC1=NO[C@@]2(CC[C@H](C)N3C[C@H]2n2cc(C(=O)NCc4ccc(F)cc4F)c(=O)c(OCOC(=O)C4(CCN(CC(=O)O)C(=O)OCOP(=O)(O)O)CC4)c2C3=O)C1` [Compound 44, N-(2-(1-(((((3′S,5S,7′R)-10′-((2,4-difluorobenzyl)carbamoyl)-3,3′-dimethyl-1′,11′-dioxo-1′,4′,5′,11′-tetrahydro-3′H,4H,7′H-spiro[isoxazole-5,6′-[2,7]methanopyrido[1,2-a][1,4]diazonin]-12′-yl)oxy)methoxy)carbonyl)cyclopropyl)ethyl)-N-(((phosphonooxy)methoxy)carbonyl)glycine]: in series [1] (setting [3]), the EC50 stood at 0.00141 µM. This molecule yielded a CC50 at 5 days in series [2] of 11.1 µM. On to `CC1=NO[C@@]2(CC[C@H](C)N3C[C@H]2n2cc(C(=O)NCc4ccc(F)cc4F)c(=O)c(OC(=O)OCCOP(=O)(O)O)c2C3=O)C1` [Compound 6, (3′S,5S,7′R)-10′-((2,4-difluorobenzyl)carbamoyl)-3,3′-dimethyl-1′,11′-dioxo-1′,4′,5′,11′-tetrahydro-3′H,4H,7′H-spiro[isoxazole-5,6′-[2,7]methanopyrido[1,2-a][1,4]diazonin]-12′-yl (2-(phosphonooxy)ethyl) carbonate], for which the EC50 in series [1] (Human immunodeficiency virus 1, IIIB, MT4, 120 h) was determined as 0.00209 µM. The same molecule had a CC50 in series [2] of 15.2 µM. `CC[C@@H](OP(=O)(O)O)[C@@H](C)OC(=O)OCOc1c2n(cc(C(=O)NCc3ccc(F)cc3F)c1=O)[C@@H]1CN(C2=O)[C@@H](C)CC[C@]12CC(C)=NO2` [Compound 76, (((3′S,5S,7′R)-10′-((2,4-difluorobenzyl)carbamoyl)-3,3′-dimethyl-1′,11′-dioxo-1′,4′,5′,11′-tetrahydro-3′H,4H,7′H-spiro[isoxazole-5,6′-[2,7]methanopyrido[1,2-a][1,4]diazonin]-12′-yl)oxy)methyl ((2R,3R)-3-(phosphonooxy)pentan-2-yl) carbonate] returned a CC50 at 5 days in series [2] of 24.8 µM. Same read-out and setting: next, `CC[C@@H](OP(=O)(O)O)[C@@H](C)OC(=O)OCOc1c2n(cc(C(=O)NCc3ccc(F)cc3F)c1=O)[C@@H]1CN(C2=O)[C@@H](C)CC[C@]12CC(OC)=NO2` [Compound 78, (((3′S,5S,7′R)-10′-((2,4-difluorobenzyl)carbamoyl)-3-methoxy-3′-methyl-1′,11′-dioxo-1′,4′,5′,11′-tetrahydro-3′H,4H,7′H-spiro[isoxazole-5,6′-[2,7]methanopyrido[1,2-a][1,4]diazonin]-12′-yl)oxy)methyl ((2R,3R)-3-(phosphonooxy)pentan-2-yl) carbonate]: 28.6 µM.

For `CC1=NO[C@@]2(CC[C@H](C)N3C[C@H]2n2cc(C(=O)NCc4ccc(F)cc4F)c(=O)c(OC(=O)C(C)(C)CCN(CC(=O)O)C(=O)OCOP(=O)(O)O)c2C3=O)C1` [Compound 2, N-(4-(((3′S,5S,7′R)-10′-((2,4-difluorobenzyl)carbamoyl)-3,3′-dimethyl-1′,11′-dioxo-1′,4′,5′,11′-tetrahydro-3′H,4H,7′H-spiro[isoxazole-5,6′-[2,7]methanopyrido[1,2-a][1,4]diazonin]-12′-yl)oxy)-3,3-dimethyl-4-oxobutyl)-N-(((phosphonooxy)methoxy)carbonyl)glycine], the EC50 in series [1] (setting [3]) worked out at 0.00137 µM. Further, the CC50 at 5 days in series [2] is 12.3 µM.

Take `CC1=NO[C@@]2(CC[C@H](C)N3C[C@H]2n2cc(C(=O)NCc4ccc(F)cc4F)c(=O)c(OC(C)OC(=O)OCCOP(=O)(O)O)c2C3=O)C1` (stereo partly drawn) [Compound 5, 1-(((3′S,5S,7′R)-10′-((2,4-difluorobenzyl)carbamoyl)-3,3′-dimethyl-1′,11′-dioxo-1′,4′,5′,11′-tetrahydro-3′H,4H,7′H-spiro[isoxazole-5,6′-[2,7]methanopyrido[1,2-a][1,4]diazonin]-12′-yl)oxy)ethyl (2-(phosphonooxy)ethyl) carbonate]: the EC50 in series [1] (setting [3]) was 0.00196 µM. In addition, in series [2], the CC50 at 5 days was 10.6 µM. In series [2], `CC[C@H](OP(=O)(O)O)[C@@H](C)OC(=O)OCOc1c2n(cc(C(=O)NCc3ccc(F)cc3F)c1=O)[C@@H]1CN(C2=O)[C@@H](C)CC[C@]12CC(C)=NO2` [Compound 77, (((3′S,5S,7′R)-10′-((2,4-difluorobenzyl)carbamoyl)-3,3′-dimethyl-1′,11′-dioxo-1′,4′,5′,11′-tetrahydro-3′H,4H,7′H-spiro[isoxazole-5,6′-[2,7]methanopyrido[1,2-a][1,4]diazonin]-12′-yl)oxy)methyl ((2R,3S)-3-(phosphonooxy)pentan-2-yl) carbonate] came in with a CC50 at 5 days of 37 µM. Same read-out and setting: next, `CC[C@@H](OP(=O)(O)O)[C@H](C)OC(=O)OCOc1c2n(cc(C(=O)NCc3ccc(F)cc3F)c1=O)[C@@H]1CN(C2=O)[C@@H](C)CC[C@]12CC(C)=NO2` [Compound 73, (((3′S,5S,7′R)-10′-((2,4-difluorobenzyl)carbamoyl)-3,3′-dimethyl-1′,11′-dioxo-1′,4′,5′,11′-tetrahydro-3′H,4H,7′H-spiro[isoxazole-5,6′-[2,7]methanopyrido[1,2-a][1,4]diazonin]-12′-yl)oxy)methyl ((2S,3R)-3-(phosphonooxy)pentan-2-yl) carbonate]: 30.8 µM.

As for `CC1=NO[C@@]2(CC[C@H](C)N3C[C@H]2n2cc(C(=O)NCc4ccc(F)cc4F)c(=O)c(OCOC(=O)CCCCOP(=O)(O)O)c2C3=O)C1` [Compound 20, (((3′S,5S,7′R)-10′-((2,4-difluorobenzyl)carbamoyl)-3,3′-dimethyl-1′,11′-dioxo-1′,4′,5′,11′-tetrahydro-3′H,4H,7′H-spiro[isoxazole-5,6′-[2,7]methanopyrido[1,2-a][1,4]diazonin]-12′-yl)oxy)methyl 5-(phosphonooxy)pentanoate], in series [1] (setting [3]), the EC50 was determined as 0.00237 µM. For the same molecule, in series [2], the CC50 at 5 days worked out at 20.4 µM.

In series [2], `CC[C@H](OP(=O)(O)O)[C@H](C)OC(=O)OCOc1c2n(cc(C(=O)NCc3ccc(F)cc3F)c1=O)[C@@H]1CN(C2=O)[C@@H](C)CC[C@]12CC(OC)=NO2` [Compound 74, (((3′S,5S,7′R)-10′-((2,4-difluorobenzyl)carbamoyl)-3-methoxy-3′-methyl-1′,11′-dioxo-1′,4′,5′,11′-tetrahydro-3′H,4H,7′H-spiro[isoxazole-5,6′-[2,7]methanopyrido[1,2-a][1,4]diazonin]-12′-yl)oxy)methyl ((2S,3S)-3-(phosphonooxy)pentan-2-yl) carbonate] had a CC50 at 5 days of 26.6 µM. The same measure, in the same setting: next, `CC1=NO[C@@]2(CC[C@H](C)N3C[C@H]2n2cc(C(=O)NCc4ccc(F)cc4F)c(=O)c(OCOC(=O)OC[C@H](OP(=O)(O)O)C(C)C)c2C3=O)C1` [Compound 80, (((3′S,5S,7′R)-10′-((2,4-difluorobenzyl)carbamoyl)-3,3′-dimethyl-1′,11′-dioxo-1′,4′,5′,11′-tetrahydro-3′H,4H,7′H-spiro[isoxazole-5,6′-[2,7]methanopyrido[1,2-a][1,4]diazonin]-12′-yl)oxy)methyl ((R)-3-methyl-2-(phosphonooxy)butyl) carbonate]: 27.2 µM.
